{"source": "paper PMC11801715", "about": "“Activating PKC-ε induces HIV expression with improved tolerability” (PLOS Pathogens, 2025)", "key": {"[1]": {"system": "PKC δ and ε over α and β", "settings": "cited from earlier work"}, "[2]": {"biological_target": "T1, PKC-α (Homo sapiens, UniProt P17252)", "test": "PKC isoform translocation in A549-tGFP cells", "format": "cell-based", "set-up": "host or cells: A549", "protocol": "(§1) A description of this effort is reported elsewhere.\n(§2) Cellular translocation of PKC isoforms upon activation was determined in 8 A549 cell lines, each expressing a single PKC isoform fused to tGFP (PhenoVista Biosciences). Cells were plated in 384-well plates (80 μL/well) at 10^5 cells/mL in RPMI with 10% FBS and rested overnight. PKC agonist(s) were serially diluted at 1:3 steps in DMSO and added to the cells. After 60 minutes in an incubator at 37 °C, 5% CO2, cells were stained with Hoechst-33342 and fixed with 2% paraformaldehyde for 30 minutes at 4 °C. Cells were then stained with wheat germ agglutinin conjugated to AlexaFluor647 (WGA-647) for 10 minutes at 4 °C, washed to remove excess dye and imaged with Cellomics Array Scan (Thermo Fisher) at room temperature (RT). Images were analyzed using Cellomics automated image analysis algorithm. Plasma membrane translocation was quantified using the ratio between the average fluorescence in the areas at the cell edge defined by WGA-647 and the cytoplasm region."}, "[3]": {"biological_target": "PKC-δ (Homo sapiens, UniProt Q05655)", "sequence (Q05655 whole entry, canonical isoform)": "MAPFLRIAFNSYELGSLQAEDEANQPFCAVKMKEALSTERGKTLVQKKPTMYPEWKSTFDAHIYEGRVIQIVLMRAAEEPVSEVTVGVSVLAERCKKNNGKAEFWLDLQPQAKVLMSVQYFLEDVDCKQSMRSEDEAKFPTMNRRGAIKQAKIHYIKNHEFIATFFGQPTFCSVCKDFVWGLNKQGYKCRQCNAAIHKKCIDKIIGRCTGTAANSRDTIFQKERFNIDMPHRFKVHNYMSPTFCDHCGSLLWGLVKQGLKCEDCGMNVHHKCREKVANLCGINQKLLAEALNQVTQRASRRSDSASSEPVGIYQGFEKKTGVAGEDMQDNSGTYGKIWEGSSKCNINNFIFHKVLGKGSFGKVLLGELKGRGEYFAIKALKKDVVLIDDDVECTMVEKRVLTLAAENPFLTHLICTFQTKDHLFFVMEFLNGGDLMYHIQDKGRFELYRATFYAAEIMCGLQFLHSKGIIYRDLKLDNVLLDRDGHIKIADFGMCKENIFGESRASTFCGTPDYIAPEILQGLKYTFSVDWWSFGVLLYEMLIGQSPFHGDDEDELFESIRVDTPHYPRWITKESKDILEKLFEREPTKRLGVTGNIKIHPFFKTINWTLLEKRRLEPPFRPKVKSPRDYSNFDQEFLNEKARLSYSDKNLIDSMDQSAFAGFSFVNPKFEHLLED", "test": "PKC isoform translocation in A549-tGFP cells", "format": "cell-based", "set-up": "host or cells: A549", "protocol": "as §1, §2"}, "[4]": {"biological_target": "PKC-η (Homo sapiens, UniProt P24723)", "sequence (P24723 whole entry, canonical isoform)": "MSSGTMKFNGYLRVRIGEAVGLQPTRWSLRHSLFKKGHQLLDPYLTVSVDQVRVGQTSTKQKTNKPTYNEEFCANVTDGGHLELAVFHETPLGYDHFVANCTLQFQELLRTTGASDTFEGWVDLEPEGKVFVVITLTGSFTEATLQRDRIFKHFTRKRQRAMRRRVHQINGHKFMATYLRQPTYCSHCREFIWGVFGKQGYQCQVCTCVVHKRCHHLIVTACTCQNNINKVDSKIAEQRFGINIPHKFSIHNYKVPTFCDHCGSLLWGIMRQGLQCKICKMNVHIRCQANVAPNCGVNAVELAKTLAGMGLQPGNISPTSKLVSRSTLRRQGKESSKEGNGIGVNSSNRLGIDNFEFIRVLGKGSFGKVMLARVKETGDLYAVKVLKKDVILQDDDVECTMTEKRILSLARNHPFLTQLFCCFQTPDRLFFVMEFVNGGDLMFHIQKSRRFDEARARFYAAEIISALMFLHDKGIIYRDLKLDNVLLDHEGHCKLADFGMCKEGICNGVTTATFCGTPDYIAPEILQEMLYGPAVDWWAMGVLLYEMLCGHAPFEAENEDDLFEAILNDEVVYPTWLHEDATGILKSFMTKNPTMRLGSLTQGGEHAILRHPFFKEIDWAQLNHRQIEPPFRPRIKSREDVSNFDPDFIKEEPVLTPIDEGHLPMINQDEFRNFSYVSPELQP", "test": "PKC isoform translocation in A549-tGFP cells", "format": "cell-based", "set-up": "host or cells: A549", "settings": "A549-tGFP cells, 60 minutes", "protocol": "as §1, §2"}, "[5]": {"biological_target": "PKC-θ (Homo sapiens, UniProt Q04759)", "sequence (Q04759 whole entry, canonical isoform)": "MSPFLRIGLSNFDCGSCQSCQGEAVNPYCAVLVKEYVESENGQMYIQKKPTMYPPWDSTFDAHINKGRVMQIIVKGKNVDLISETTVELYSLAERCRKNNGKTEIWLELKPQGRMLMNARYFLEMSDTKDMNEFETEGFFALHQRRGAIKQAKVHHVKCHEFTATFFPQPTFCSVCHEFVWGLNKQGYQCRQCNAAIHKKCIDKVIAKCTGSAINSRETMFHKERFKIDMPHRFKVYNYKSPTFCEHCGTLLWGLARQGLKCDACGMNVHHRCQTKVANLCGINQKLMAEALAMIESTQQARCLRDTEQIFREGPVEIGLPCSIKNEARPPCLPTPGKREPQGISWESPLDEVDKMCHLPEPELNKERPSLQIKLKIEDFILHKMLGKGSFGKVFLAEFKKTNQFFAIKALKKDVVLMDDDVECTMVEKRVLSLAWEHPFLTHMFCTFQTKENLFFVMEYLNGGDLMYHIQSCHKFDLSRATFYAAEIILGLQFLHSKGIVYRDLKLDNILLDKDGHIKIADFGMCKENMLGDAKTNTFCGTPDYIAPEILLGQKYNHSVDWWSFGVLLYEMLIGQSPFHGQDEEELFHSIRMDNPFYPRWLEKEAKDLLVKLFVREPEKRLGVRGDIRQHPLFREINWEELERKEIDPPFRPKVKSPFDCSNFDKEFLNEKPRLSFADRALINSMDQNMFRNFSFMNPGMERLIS", "test": "PKC isoform translocation in A549-tGFP cells", "format": "cell-based", "set-up": "host or cells: A549", "settings": "A549-tGFP cells, 60 minutes", "protocol": "as §1, §2"}, "[6]": {"biological_target": "T2, PKC-β1 (Homo sapiens, UniProt P05771)", "T2 sequence (P05771 whole entry, canonical isoform)": "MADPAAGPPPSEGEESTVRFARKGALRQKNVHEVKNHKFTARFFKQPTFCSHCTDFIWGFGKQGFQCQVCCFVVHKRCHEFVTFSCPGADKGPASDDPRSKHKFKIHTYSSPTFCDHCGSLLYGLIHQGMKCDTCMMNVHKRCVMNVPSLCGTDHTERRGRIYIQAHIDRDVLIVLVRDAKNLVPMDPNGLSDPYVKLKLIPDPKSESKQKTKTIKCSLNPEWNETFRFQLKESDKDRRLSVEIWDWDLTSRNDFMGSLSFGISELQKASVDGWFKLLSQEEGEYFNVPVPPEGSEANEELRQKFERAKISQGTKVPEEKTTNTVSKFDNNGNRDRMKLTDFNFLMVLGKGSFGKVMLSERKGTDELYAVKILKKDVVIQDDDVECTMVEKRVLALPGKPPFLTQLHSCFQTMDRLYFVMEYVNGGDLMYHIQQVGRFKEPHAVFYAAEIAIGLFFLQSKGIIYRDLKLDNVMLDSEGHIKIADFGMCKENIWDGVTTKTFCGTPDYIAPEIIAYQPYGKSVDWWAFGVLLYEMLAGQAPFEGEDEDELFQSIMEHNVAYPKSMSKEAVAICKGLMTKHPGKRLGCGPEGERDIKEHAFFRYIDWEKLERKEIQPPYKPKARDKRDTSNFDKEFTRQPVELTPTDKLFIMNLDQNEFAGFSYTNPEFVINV", "test": "PKC isoform translocation in A549-tGFP cells", "format": "cell-based", "set-up": "host or cells: A549", "settings": "60 minutes", "protocol": "(§3) Using these findings we embarked on new designs for DAG-lactones with additional substituents from the ester moiety in combination with a few olefin substituents. A description of this effort is reported elsewhere.\nas §2"}, "[7]": {"biological_target": "T3, PKC-β2 (Homo sapiens, UniProt P05771)", "T3 sequence (P05771 1-673 isoform P05771-2)": "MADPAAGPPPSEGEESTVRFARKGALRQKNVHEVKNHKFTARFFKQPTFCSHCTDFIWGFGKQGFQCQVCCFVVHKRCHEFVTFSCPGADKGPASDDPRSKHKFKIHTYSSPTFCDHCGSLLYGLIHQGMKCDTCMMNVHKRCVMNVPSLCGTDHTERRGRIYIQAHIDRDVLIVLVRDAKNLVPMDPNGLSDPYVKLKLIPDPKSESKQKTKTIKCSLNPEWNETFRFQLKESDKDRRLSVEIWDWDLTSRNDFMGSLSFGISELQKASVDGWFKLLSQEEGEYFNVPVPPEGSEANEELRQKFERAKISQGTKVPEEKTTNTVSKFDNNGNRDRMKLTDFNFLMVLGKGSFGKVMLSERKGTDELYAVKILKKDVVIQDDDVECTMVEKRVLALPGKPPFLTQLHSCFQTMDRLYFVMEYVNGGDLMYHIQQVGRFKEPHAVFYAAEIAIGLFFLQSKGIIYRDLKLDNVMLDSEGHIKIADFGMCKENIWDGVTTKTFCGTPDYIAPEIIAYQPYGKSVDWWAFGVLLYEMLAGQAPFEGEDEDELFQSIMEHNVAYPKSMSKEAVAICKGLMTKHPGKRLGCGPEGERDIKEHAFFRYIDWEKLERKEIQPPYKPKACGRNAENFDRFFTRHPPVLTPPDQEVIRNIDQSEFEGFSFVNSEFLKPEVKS", "test": "PKC isoform translocation in A549-tGFP cells", "format": "cell-based", "set-up": "host or cells: A549", "settings": "60 minutes", "protocol": "as §3, §2"}, "[8]": {"biological_target": "PKC-γ (Homo sapiens, UniProt P05129)", "test": "PKC isoform translocation in A549-tGFP cells", "format": "cell-based", "set-up": "host or cells: A549", "settings": "60 minutes", "protocol": "as §3, §2"}, "[9]": {"biological_target": "T4, PKC-ε (Homo sapiens, UniProt Q02156)", "T4 sequence (Q02156 1-737)": "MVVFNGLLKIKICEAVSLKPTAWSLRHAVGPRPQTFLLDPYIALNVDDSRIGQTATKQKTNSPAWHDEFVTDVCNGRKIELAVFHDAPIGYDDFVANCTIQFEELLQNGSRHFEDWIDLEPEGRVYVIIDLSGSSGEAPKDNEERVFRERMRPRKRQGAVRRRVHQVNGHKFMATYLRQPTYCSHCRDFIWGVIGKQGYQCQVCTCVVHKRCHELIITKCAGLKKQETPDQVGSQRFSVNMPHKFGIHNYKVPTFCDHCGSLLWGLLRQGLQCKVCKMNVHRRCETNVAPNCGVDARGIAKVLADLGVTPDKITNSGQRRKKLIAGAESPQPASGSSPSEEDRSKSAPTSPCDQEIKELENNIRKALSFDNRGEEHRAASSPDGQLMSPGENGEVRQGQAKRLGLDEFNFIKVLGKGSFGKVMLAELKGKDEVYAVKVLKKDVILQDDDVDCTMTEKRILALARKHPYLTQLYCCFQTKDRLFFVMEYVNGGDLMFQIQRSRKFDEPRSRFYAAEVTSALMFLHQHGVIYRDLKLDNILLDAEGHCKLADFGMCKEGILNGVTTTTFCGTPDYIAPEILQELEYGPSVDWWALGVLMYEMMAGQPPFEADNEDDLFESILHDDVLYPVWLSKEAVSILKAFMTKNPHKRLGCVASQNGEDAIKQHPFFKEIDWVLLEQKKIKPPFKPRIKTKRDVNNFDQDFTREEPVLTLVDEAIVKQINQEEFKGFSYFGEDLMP", "test": "PKC isoform translocation in A549-tGFP cells", "format": "cell-based", "set-up": "host or cells: A549", "settings": "A549-tGFP cells, 60 minutes", "protocol": "as §3, §2"}, "[10]": {"system": "platelets (CD62P+) and CD4+ T cells (CD69+) in whole blood", "test": "In vitro whole blood platelet and CD4+ T-cell activation assay", "format": "cell-based, human", "settings": "whole blood from healthy donors; platelets to CD4+ T cells", "protocol": "We developed a novel human whole blood assay to determine whether other PKC agonists also activate platelets at the same concentrations that are required to activate CD4^+ T cells. Platelet activation was assessed by CD62P (P-selectin), which traffics to the cell surface upon activation and α-granule release. CD4^+ T-cell activation was assessed by CD69 upregulation (Fig 7A).\nWhole blood was drawn into sodium citrate tubes using a 21-gauge needle. To prevent potential interference from tissue thromboplastin released during venipuncture, which could affect the accuracy of coagulation testing, the first 2 mL of blood drawn was discarded. PKC agonist molecules were dispensed in a dilution series into 80 μL of blood per well in a flat-bottom 96-well plate and mixed gently. Care was taken not to introduce any mechanical stress-related activation of platelets. […] The remaining 72 μL of blood in the first plate was incubated for 1 additional hour and stained with anti-human CD3 (UCHT1), CD4 (SK3), and CD69 (FN50) (30 minutes in the dark). Red blood cell lysis and fixing was done using BD lyse/fix solution. Stained cells were acquired on BD LSR Fortessa II after washing. […] EC50 values for platelet and CD4 T-cell activation for each agonist was obtained by nonlinear regression curve fit using GraphPad Prism version 9.3.0."}, "[11]": {"settings": "cited from earlier work"}, "[12]": {"system": "latent HIV in total CD4+ T cells", "test": "microbe, parasite or virus in culture", "format": "cell-based, HIV-1", "settings": "5 μM", "protocol": "Peripheral blood mononuclear cells and CD4^+ T cells used for evaluating PKC agonist and inhibitor molecules were isolated from leukopaks of selected participants as described previously. Isolated CD4^+ T cells (5×10^6 cells/well) were added to 24-well tissue culture plates in 2.5 mL of RPMI medium containing 100 nM each of elvitegravir and efavirenz. Cells were stimulated with DMSO (vehicle control) or the indicated concentrations of PKC agonist molecules. Cells were pretreated with PKC isoform inhibitors (Selleck Chemicals) for 1 hour before addition of PKC agonist at indicated concentrations and maintained at 37 °C, 5% CO2 for 3 days. Cell supernatants from each well were analyzed using the Cobas […] system for quantification of HIV-1 RNA using the HIV-1 test v2.0 kit (Roche Diagnostics)."}, "[13]": {"biological_target": "T1, PKC-α", "test": "Z'-LYTE kinase activity assay", "format": "biochemical", "settings": "ATP at Kmapp, 2 μM peptide substrate; read-out: IC50 for classical PKC isoforms, PKC-α", "excerpt": "(§4) In this assay, phosphorylation of a synthetic FRET-peptide substrate protects the peptide from cleavage by the development reagent and prevents disruption of the FRET signal."}, "[14]": {"biological_target": "T2, PKC-β1", "test": "Z'-LYTE kinase activity assay", "format": "biochemical", "settings": "ATP at Kmapp, 2 μM peptide substrate; read-out: IC50 for classical PKC isoforms, PKC-β1", "excerpt": "as §4"}, "[15]": {"biological_target": "T3, PKC-β2", "test": "Z'-LYTE kinase activity assay", "format": "biochemical", "settings": "ATP at Kmapp, 2 μM peptide substrate; read-out: IC50 for classical PKC isoforms, PKC-β2", "excerpt": "as §4"}, "[16]": {"system": "classical and novel PKC isoforms", "test": "Estimated PKC inhibition in cell culture from Z'-LYTE IC50 and free fraction", "format": "biochemical", "settings": "25 µM, 34% free in cell culture media", "excerpt": "as §4"}, "[17]": {"test": "Free fraction in cell culture media", "format": "in vitro ADME"}}, "note": "Where two headings read alike, the source gives them in different places.", "data": [{"smiles": "CC(C)CC(C/C=C1\\CC(CO)(COC(=O)C(C)(C)C)OC1=O)CC(C)C", "note": "(stereo not shown) [AJH-863, reference compound]", "values": [{"measurement": "potency as PKC agonist", "setting": "[1]", "value": "low nanomolar potency"}, {"measurement": "selectivity for δ and ε over α and β", "setting": "[1]", "value": "approximately 10 fold"}, {"measurement": "EC50", "setting": "[2]", "value": "> 50000", "unit": "nM"}, {"measurement": "EC50", "setting": "[3]; EC50 for PKC-δ translocation", "value": 2320, "unit": "nM"}, {"measurement": "EC50", "setting": "[4]", "value": 1890, "unit": "nM"}, {"measurement": "EC50", "setting": "[5]", "value": 1200, "unit": "nM"}, {"measurement": "EC50", "setting": "[6]", "value": 1300, "unit": "nM"}, {"measurement": "EC50", "setting": "[7]", "value": 1060, "unit": "nM"}, {"measurement": "EC50", "setting": "[8]", "value": 19400, "unit": "nM"}, {"measurement": "EC50", "setting": "[9]", "value": 505, "unit": "nM"}]}, {"smiles": "CCC/C=C/C=C/C(=O)O[C@H]1/C(=C/C(=O)OC)C[C@H]2C[C@H]([C@@H](C)O)OC(=O)C[C@H](O)C[C@@H]3C[C@H](OC(C)=O)C(C)(C)[C@](O)(C[C@@H]4C/C(=C/C(=O)OC)C[C@H](/C=C/C(C)(C)[C@]1(O)O2)O4)O3", "note": "[Bryostatin, reference compound]", "values": [{"measurement": "CD62P EC50/CD69 EC50 ratio Geomean", "setting": "[10]", "value": 0.9}, {"measurement": "dose-limiting toxicity", "setting": "[11]", "value": "myalgia"}]}, {"smiles": "CC(C)=C1CC(CO)(COC(=O)c2ccc(C#Cc3ccc(C)cc3)cc2)OC1=O", "note": "(stereo not shown) [Comin compound 2]", "values": [{"measurement": "HIV RNA Fold∆ over DMSO, Geomean", "setting": "[12]; agonist alone", "value": 13, "unit": "fold"}, {"measurement": "HIV RNA Fold∆ over DMSO, Geomean", "setting": "[12]; +5 μM Gö-6850 Pan-PKC Inhibitor", "value": 1.6, "unit": "fold"}, {"measurement": "HIV RNA Fold∆ over DMSO, Geomean", "setting": "[12]; +25 μM Gö-6976 Classical-PKC Inhibitor", "value": 15, "unit": "fold"}, {"measurement": "EC50", "setting": "[2]; A549-tGFP cells, 60 minutes, read-out: EC50 for PKC-α translocation", "value": "> 50000", "unit": "nM"}, {"measurement": "EC50", "setting": "[3]; A549-tGFP cells, 60 minutes, read-out: EC50 for PKC-δ translocation", "value": 4040, "unit": "nM"}, {"measurement": "EC50", "setting": "[4]", "value": 1190, "unit": "nM"}, {"measurement": "EC50", "setting": "[5]", "value": 792, "unit": "nM"}, {"measurement": "EC50", "setting": "[6]", "value": 966, "unit": "nM"}, {"measurement": "EC50", "setting": "[7]", "value": 6650, "unit": "nM"}, {"measurement": "EC50", "setting": "[9]", "value": 783, "unit": "nM"}]}, {"smiles": "Cn1c2ccccc2c2c3c(c4c5ccccc5n(CCC#N)c4c21)CNC3=O", "note": "[Gӧ-6976]", "values": [{"measurement": "IC50", "setting": "[13]", "value": 101, "unit": "nM"}, {"measurement": "IC50", "setting": "[14]", "value": 469, "unit": "nM"}, {"measurement": "IC50", "setting": "[15]", "value": 182, "unit": "nM"}, {"measurement": "estimated effect on novel PKC isoforms", "setting": "[16]", "value": "without impacting novel PKC isoforms"}, {"measurement": "estimated inhibition of classical isoform activity", "setting": "[16]", "value": "75%–95%"}, {"measurement": "free in cell culture media", "setting": "[17]", "value": 34, "unit": "%"}]}]}
